The experiment has as its system A673 NR0B1-luciferase reporter, viability-normalised luminescence. As to the kind of experiment: NR0B1 reporter signal reduction in A673 cells – cell-based, luciferase luminescence, cherry-pick, EWS/Fli inhibitor project, dose response (AID 686920).

Molecules are shown by their SMILES.

In the case of `OC[C@H]1[C@@H](c2ccc(C#CC3CCCC3)cc2)[C@@H]2CN(CCC(F)(F)F)CCCCN12`, the AC35 is 9.24 µM.
With `CCCCC[C@H](C)N1C[C@H](COCc2ccccc2)Oc2cc(N3CC[C@@H](N(C)C)C3)ccc2S1(=O)=O`, the AC35 is 34.7 µM.
As for `CCCn1c(C)cc(C(=O)CN2C(=O)c3ccccc3S2(=O)=O)c1C`, the AC35 was 1.25 µM.
For `Cc1ccsc1/C=N/Nc1ccc(C(=O)O)cc1` the value was 3.1 µM; for `Cc1cc(C(=O)Nc2ccc3c(c2)C(=O)N(C)[C@@H]2CC[C@@H](CC(=O)NCc4ccc(-c5ccccc5)cc4)O[C@H]2CO3)no1`, 6.29 µM; for `O=C(Nc1ccc(NC(=O)c2cc3ccccc3o2)cc1)c1ccc2c(c1)OCCO2`, 13.2 µM.
Regarding `COc1ccc(C=NNc2nc3ccccc3s2)cc1`, the AC35 is 6.43 µM.
With `C[C@H](CO)N1C[C@H](C)[C@@H](CN(C)Cc2ccc(C(F)(F)F)cc2)OCCCC[C@H](C)Oc2ccc(NS(=O)(=O)c3ccc(F)cc3)cc2C1=O`, the AC35 is 16.6 µM.
With `C[C@H]1CN([C@@H](C)CO)C(=O)c2cc(N(C)C)ccc2O[C@@H]1CN(C)Cc1ccc(C(=O)Nc2ccccc2N)cc1`, the AC35 was 9.36 µM.
In the case of `O=c1oc2cc(O)ccc2s1`, the AC35 is 11.8 µM.
For `BrC(=C\c1ccccc1)/C=N/n1cnnc1` the value was 7.17 µM; for `O=C(O)c1ccc(N/N=C/c2c(F)cccc2Cl)cc1`, 4.61 µM; for `CC1(C)Oc2cc3oc(-c4cc(O)cc(O)c4)cc3cc2CC1O` (stereo not drawn), 2.07 µM.
To `COc1cc(-c2coc3c(C(=O)NCc4ccc(C(F)(F)F)cc4)cccc23)ccc1O` belongs 2.21 µM; to `C[C@H](CO)N1C[C@H](C)[C@H](CN(C)Cc2ccc(C(=O)Nc3ccccc3N)cc2)Oc2ccc(NC(=O)C3CC3)cc2CC1=O`, 37.8 µM; to `CC(=O)OC1CC(OC2C(O)CC(OC3C(O)CC(OC4CCC5(C)C(CCC6C5CCC5(C)C(C7=CC(=O)OC7)C(O)CC65O)C4)OC3C)OC2C)OC(C)C1OC1OC(CO)C(O)C(O)C1O` (stereo not drawn), 0.812 µM.
To `COC(=O)C1=C(C)N(Cc2ccccc2C(F)(F)F)C(=NCc2ccc(OC)cc2)NC1c1ccc(C(F)(F)F)cc1` (stereo not drawn) belongs 29.9 µM; to `C[C@@H]1O[C@@H](O[C@H]2C[C@@H](O)[C@]3(CO)[C@H]4[C@H](O)C[C@]5(C)[C@@H](C6COC(=O)C6)CC[C@]5(O)[C@@H]4CC[C@]3(O)C2)[C@H](O)[C@H](O)[C@H]1O` (stereo partly drawn), 1.24 µM; to `O=c1cc(-c2ccccc2)oc2ccc3ccccc3c12`, 1.43 µM.
`O=c1cc(CN2CCN(Cc3ccccc3)CC2)c2ccc(O)c(O)c2o1`: the AC35 was 23.3 µM.
To `CN1C2CCC1/C(=C/c1ccccn1)C(=O)/C2=C\c1ccccn1` belongs 1.87 µM.
For `O=C1/C(=C\c2ccccc2)CN(C(=O)CCN2CCCCC2)C/C1=C/c1ccccc1` the value was 2.54 µM; for `N#CC(=C1C=CC(=NO)C(Cl)=C1)c1ccccc1`, 5.85 µM; for `C[C@@H]1CCCCO[C@H](CN(C)Cc2ccc(C(=O)Nc3ccccc3N)cc2)[C@@H](C)CN([C@@H](C)CO)C(=O)c2cc(NS(=O)(=O)c3ccc(Cl)cc3)ccc2O1`, 6.13 µM.
`Nc1ccc2c(c1)OC1(CCCC1)O2`: the AC35 was 6.63 µM.
For `CN(CCO)c1ccc(/C=N/Nc2nncc3ccccc23)cc1` the value was 5.2 µM; for `Cc1ccc(/C=N/Nc2ccnc3cc(Cl)ccc23)c(C)c1`, 15.3 µM; for `CC(=NNc1ccc2ccccc2n1)c1ccccc1O`, 5.09 µM.
To `COC(=O)c1cccc(NC(=O)NC(=O)c2ccccc2Cl)c1` belongs 0.215 µM; to `Cc1ccsc1/C=N/Nc1cccc(C(=O)O)c1`, 0.832 µM.
For `CCOc1ccc(-c2noc(CCC(=O)O)n2)cc1` the value was 1.17 µM; for `C[C@H]1CN([C@@H](C)CO)S(=O)(=O)c2ccc(C#Cc3ccncc3)cc2O[C@@H]1CN(C)S(=O)(=O)c1ccccc1`, 24.4 µM; for `Cc1cccc(/C=N/Nc2ccc3ccccc3n2)c1`, 1.6 µM.
Regarding `CCOC(=O)Cc1ccc(NC(=O)c2ccccc2Br)cc1`, the AC35 is 4.18 µM.
To `C[C@@H]1O[C@@H](O[C@H]2C[C@@H](O)[C@]3(CO)[C@@H]4C(CC[C@]3(O)C2)[C@@]2(O)CC[C@H](C3COC(=O)C3)[C@@]2(C)C[C@H]4O)[C@H](O)[C@H](O)[C@H]1O` (stereo partly drawn) belongs 1.97 µM; to `C[C@@H]1CN([C@@H](C)CO)C(=O)c2cccc(NC(=O)Nc3cccc4ccccc34)c2O[C@@H]1CN(C)Cc1ccc(C(=O)Nc2ccccc2N)cc1`, 10.2 µM.
Take `C[C@@H]1CN([C@H](C)CO)C(=O)CCCn2nncc2CO[C@H]1CN(C)Cc1ccc(Oc2ccccc2)cc1`: the AC35 is 34.1 µM.
To `O=C1Nc2ccccc2C1=Nc1ccc(Br)cc1` belongs 15.6 µM; to `CO[C@H]1CN(C)C(=O)c2ccc(NC(=O)c3ccc(-c4ccccc4)cc3)cc2OC[C@H](C)NC[C@H]1C`, 15 µM; to `C[C@@H]1CN([C@@H](C)CO)C(=O)c2cccc(NS(=O)(=O)c3ccccc3)c2O[C@@H]1CN(C)Cc1ccc(C(=O)Nc2ccccc2N)cc1`, 5.67 µM.
As for `COc1ccccc1NC(=O)N1CCCCN2[C@H](CO)[C@H](c3ccc(-c4cccc(C)c4)cc3)[C@H]2C1`, the AC35 was 8.3 µM.
To `CC(C)NC(=O)N(C)C[C@@H]1Oc2cc(C#Cc3ccc(F)cc3)ccc2S(=O)(=O)N([C@H](C)CO)C[C@H]1C` belongs 33.9 µM; to `C[C@H]1CN([C@@H](C)CO)C(=O)Cc2cc(NC(=O)CCC(F)(F)F)ccc2O[C@H]1CN(C)Cc1ccc(C(=O)Nc2ccccc2N)cc1`, 6.66 µM; to `COc1ccc(-c2ccc3c(c2)[C@H]2[C@H](CCN2S(=O)(=O)c2ccc(OC)cc2)[C@@H](CO)N3C)cc1`, 4.45 µM.
To `C[C@@H]1CCCCO[C@H](CN(C)Cc2ccc(C(F)(F)F)cc2)[C@H](C)CN([C@H](C)CO)C(=O)c2cc(NC(=O)CCCN(C)C)ccc2O1` belongs 11.9 µM; to `O=c1[nH]c(=O)n(C2C[C@H](O)[C@@H](CO)O2)cc1C(F)(F)F` (stereo partly drawn), 4.01 µM; to `CCC(C)Cn1c(O)cc2nn(-c3nc4ccccc4s3)c(=O)c-2c1C` (stereo not drawn), 1.57 µM.
To `CCc1ccc2oc(C(=O)N3CCN(c4ccccc4OC)CC3)cc(=O)c2c1` belongs 10.7 µM; to `COC(=O)c1cccc(NC(=O)NC(=O)c2ccc(Cl)cc2)c1`, 0.225 µM; to `CN(C)c1ccc(C=c2c3ccccc3n3c2c2c([n+]3C)CCCC2)cc1`, 1.9 µM.
As to `C=C1C(=O)O[C@@H]2[C@H]1[C@@H](OC(=O)/C(C)=C/C)C/C(C)=C\C(=O)/C=C(\C)[C@@H]2O`, the AC35 was 8.09 µM.
For `O=C(Nc1ccccc1F)N1CCCCN2[C@H](CO)[C@H](c3ccc(/C=C/c4ccccc4)cc3)[C@H]2C1` the value was 14 µM; for `C[C@@H]1CN([C@@H](C)CO)S(=O)(=O)c2ccc(C#CCN(C)C)cc2O[C@@H]1CN(C)Cc1ccncc1`, 60.2 µM; for `S=c1[nH]nc(-c2cc(-c3ccccc3)n[nH]2)n1/N=C/C(Br)=C/c1ccccc1`, 10.4 µM.
For `O=C1Nc2ccccc2C1=Nc1ccccc1-c1ccccc1` the value was 11.4 µM.
With `O=C1NC(=S)NC(=O)C1=Cc1cccn1-c1ccc(O)cc1`, the AC35 is 19.9 µM.
To `C[C@H](CO)N1C[C@H](C)[C@H](CN(C)Cc2ccc(Oc3ccccc3)cc2)Oc2ccc(NC(=O)Cn3cnnn3)cc2CC1=O` belongs 33.2 µM; to `O=C(O)c1ccccc1C(=O)Nc1ccc(Oc2cccc3ccccc23)cc1`, 2.28 µM.
